US20120129842A1, “BISTHIAZOLE INHIBITORS OF PRO-MATRIX METALLOPROTEINASE ACTIVATION” (priority 2010, published 2012)
Where a name gives a salt, the structure may show the parent alone. Blank lines part the entries; values can stand above or below the compound they belong to.

Experiments:
[1] = target: T1, proMMP9(20-445;ΔFnII) (SEQ ID NO:6) (Homo sapiens, UniProt P14780, DEL216-390); assay: ThermoFluor binding assay with proMMP9(20-445;ΔFnII); details: pH 7.0
T1 construct: start methionine (N); made in house; host or cells: E. coli BL21(DE3) RIL
T1 sequence (P14780 with tags, fused parts or gaps DEL216-390): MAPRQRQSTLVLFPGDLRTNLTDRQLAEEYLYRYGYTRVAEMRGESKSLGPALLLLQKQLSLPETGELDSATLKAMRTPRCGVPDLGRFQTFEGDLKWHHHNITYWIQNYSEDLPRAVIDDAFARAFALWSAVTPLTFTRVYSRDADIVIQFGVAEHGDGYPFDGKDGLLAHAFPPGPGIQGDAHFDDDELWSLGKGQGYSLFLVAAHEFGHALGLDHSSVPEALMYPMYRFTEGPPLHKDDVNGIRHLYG
How it was run: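 proMMP9(20-445;ΔFnII) at 2.8 μM with 50 μM 1,8-ANS in 50 mM HEPES pH 7.0, 100 mM NaCl, 0.001% Tween-20, 2.5 mM MgCl2, 300 μM CaCl2; compounds serially diluted in DMSO. Heated 40–90 °C at 1 °C/min, fluorescence read at 500±25 nm. Tm fit by standard equations; binding fit using DSC/TF-derived thermodynamic parameters.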

[2] = target: proMMP13(1-268) (SEQ ID NO:7) (Homo sapiens, UniProt P45452); assay: ThermoFluor binding assay with proMMP13(1-268); design: 6xHis (C); made in house; details: pH 7.0
How it was run: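 Thermal shift binding with 3.5 μM protein and 25 μM 1,8-ANS in 50 mM HEPES pH 7.0, 100 mM NaCl, 0.001% Tween-20, 2.5 mM MgCl2, 300 μM CaCl2. Samples were heated 40 to 90 °C at 1 °C/min, fluorescence read at 500 nm. Tm shifts across an 11-point DMSO dilution series were fitted with DSC-derived thermodynamic parameters.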

[3] = target: T2, proMMP9(67-444;ΔFnII) (SEQ ID NO:5) (Homo sapiens, UniProt P14780, DEL216-390); assay: ThermoFluor binding assay with proMMP9(67-444;ΔFnII); details: pH 7.0
T2 construct: start methionine (N); made in house; host or cells: E. coli BL21(DE3) RIL
T2 sequence (P14780 with tags, fused parts or gaps DEL216-390): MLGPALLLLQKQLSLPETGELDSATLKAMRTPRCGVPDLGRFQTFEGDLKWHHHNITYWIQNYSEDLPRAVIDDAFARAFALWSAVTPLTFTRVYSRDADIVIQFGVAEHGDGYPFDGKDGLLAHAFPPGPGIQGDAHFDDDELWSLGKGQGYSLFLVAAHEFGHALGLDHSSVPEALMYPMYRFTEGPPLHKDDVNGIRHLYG
How it was run: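 Thermal shift binding with 3.5 μM proMMP9(67-444;ΔFnII) and 50 μM 1,8-ANS in 50 mM HEPES pH 7.0, 100 mM NaCl, 2.5 mM MgCl2, 300 μM CaCl2, 0.001% Tween-20, with serially diluted compound. Heated 40 to 90° C at 1° C/min; fluorescence-derived Tm fitted using DSC/ThermoFluor thermodynamic parameters.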

[4] = target: T3, full-length proMMP9(1-707) (SEQ ID NO:1) (Homo sapiens, UniProt P14780, R574P); assay: proMMP9/MMP3 P126 Activation Assay; assay type: biochemical; details: 20 nM proMMP9, 20 nM MMP3, 80 min 37° C.
T3 construct: made in house; host or cells: HEK293 (proMMP9, secreted); E. coli (MMP3)
T3 sequence (P14780 20-707 R574P): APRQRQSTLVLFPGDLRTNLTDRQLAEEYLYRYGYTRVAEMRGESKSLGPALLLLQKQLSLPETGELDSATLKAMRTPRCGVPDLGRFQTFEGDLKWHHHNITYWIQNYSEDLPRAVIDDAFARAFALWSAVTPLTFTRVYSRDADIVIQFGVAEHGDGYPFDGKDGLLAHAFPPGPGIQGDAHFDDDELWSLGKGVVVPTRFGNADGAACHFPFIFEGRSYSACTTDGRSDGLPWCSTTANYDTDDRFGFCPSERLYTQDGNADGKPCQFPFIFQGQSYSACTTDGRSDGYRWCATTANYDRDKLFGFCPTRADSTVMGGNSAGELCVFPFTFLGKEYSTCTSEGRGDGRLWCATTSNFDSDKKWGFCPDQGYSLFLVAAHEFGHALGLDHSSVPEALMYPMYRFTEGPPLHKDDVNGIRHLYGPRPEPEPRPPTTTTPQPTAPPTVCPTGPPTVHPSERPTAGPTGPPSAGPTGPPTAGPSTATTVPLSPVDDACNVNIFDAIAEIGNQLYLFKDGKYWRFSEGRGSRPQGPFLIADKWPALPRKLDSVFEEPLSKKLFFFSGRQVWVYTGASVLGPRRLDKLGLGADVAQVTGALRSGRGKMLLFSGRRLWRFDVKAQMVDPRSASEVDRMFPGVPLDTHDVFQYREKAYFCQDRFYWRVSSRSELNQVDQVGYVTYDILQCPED
Method: The reaction volume was 50 μL. […] Reactivity of residual MMP3 towards P-126 substrate was minimal under these conditions.

- Kd [1]: 270 nM
- Kd [2]: 4900 nM
- Kd [3]: 560 nM
- IC50 [4]: 850 nM
Structure (SMILES): COc1ccc(C(N)=O)cc1Nc1nc(-c2sc(N)nc2C)cs1 [Example 5, 3-(2′-Amino-4′-methyl-[4,5′]bithiazolyl-2-ylamino)-4-methoxy-benzamide.HBr]

- Kd [1]: 1000 nM
- Kd [2]: 2000 nM
- Kd [3]: 1600 nM
- IC50 [4]: 3400 nM
Structure (SMILES): COc1ccc(S(N)(=O)=O)cc1Nc1nc(-c2sc(C)nc2C)cs1 [Example 54, 3-(2′,4′-Dimethyl-[4,5′]bithiazolyl-2-ylamino)-4-methoxy-benzenesulfonamide.TFA]

- Kd [1]: > 95000 nM
- Kd [2]: 26000 nM
- Kd [3]: 45000 nM
- IC50 [4]: 5500 nM
Structure (SMILES): C=Cc1ccc(OC)c(Nc2nc(-c3sc(C)nc3C)cs2)c1 [Example 140, (2′,4′-Dimethyl-[4,5′]bithiazolyl-2-yl)-(2-methoxy-5-vinyl-phenyl)-amine]

- Kd [1]: 1300 nM
- Kd [2]: 39000 nM
- Kd [3]: 560 nM
- IC50 [4]: 100 nM
Structure (SMILES): CCOc1ccc(C(N)=O)cc1Nc1nc(-c2sc(NC(C)=O)nc2C)cs1 [Example 8, 3-(2′-Acetylamino-4′-methyl-[4,5′]bithiazolyl-2-ylamino)-4-ethoxy-benzamide.TFA]

- Kd [1]: 89 nM
- Kd [2]: 1400 nM
- Kd [3]: 340 nM
- IC50 [4]: 260 nM
Structure (SMILES): CCOc1ccc(C(N)=O)cc1Nc1nc(-c2sc(N)nc2C)cs1 [Example 7, 3-(2′-Amino-4′-methyl-[4,5′]bithiazolyl-2-ylamino)-4-ethoxy-benzamide]

- Kd [1]: 270 nM
- Kd [2]: 2400 nM
- Kd [3]: 1100 nM
- IC50 [4]: 590 nM
Structure (SMILES): CCOC(=O)c1nc(C)c(-c2csc(Nc3cc(C(N)=O)ccc3OC(C)C)n2)s1 [Example 99, 2-(5-carbamoyl-2-isopropoxy-phenylamino)-4′-methyl-[4,5′]bithiazolyl-2′-carboxylic acid ethyl esterHBr]

- Kd [1]: 4300 nM
- Kd [2]: 11000 nM
- Kd [3]: 21000 nM
- IC50 [4]: 720 nM
Structure (SMILES): Cc1nc(S(C)(=O)=O)sc1-c1csc(Nc2cc(C(N)=O)ccc2OC(C)C)n1 [Example 132, 4-Isopropoxy-3-(2′-methanesulfonyl-4′-methyl-[4,5′]bithiazolyl-2-ylamino)-benzamide]

The remaining lines, values behind:

Structure (SMILES): CC(=O)Nc1nc(C)c(-c2csc(Nc3cc(S(C)(=O)=O)ccc3OC(C)C)n2)s1 [Example 43, N-[2-(2-Isopropoxy-5-methanesulfonyl-phenylamino)-4′-methyl-[4,5]bithiazolyl-2′-yl]-acetamide.TFA]
- Kd [1]: 590 nM
- Kd [2]: 840 nM
- Kd [3]: 580 nM
- IC50 [4]: 760 nM

Structure (SMILES): Cc1nc(C(=O)N2CCN(C3CCCCC3)CC2)sc1-c1csc(Nc2cc(C(N)=O)ccc2OC(C)C)n1 [Example 108, 3-[2′-(4-Cyclohexyl-piperazine-1-carbonyl)-4′-methyl-[4,5′]bithiazolyl-2-ylamino]-4-isopropoxy-benzamide.TFA]
- Kd [1]: 310 nM
- Kd [2]: 320 nM
- Kd [3]: > 95000 nM
- IC50 [4]: 1700 nM

Structure (SMILES): Cc1nc(C)c(-c2csc(Nc3cc(C(=O)O)ccc3OC(C)C)n2)s1 [Example 76, 3-(2′,4′-Dimethyl-[4,5′]bithiazolyl-2-ylamino)-4-isopropoxy-benzoic acid]
- Kd [1]: 570 nM
- Kd [2]: 370 nM
- Kd [3]: 780 nM
- IC50 [4]: 430 nM

Structure (SMILES): Cc1nc(N2CCN(C)CC2)sc1-c1csc(Nc2cc(C(N)=O)ccc2OC(C)C)n1 [Example 90, 4-Isopropoxy-3-[4′-methyl-2′-(4-methyl-piperazin-1-yl)-[4,5′]bithiazolyl-2-ylamino]-benzamide.TFA]
- Kd [1]: 37 nM
- Kd [2]: 680 nM
- Kd [3]: 170 nM
- IC50 [4]: 100 nM

Structure (SMILES): CCOc1ccc(C(=O)O)cc1Nc1nc(-c2sc(NC(C)=O)nc2C)cs1 [Example 48, 3-(2′-Acetylamino-4′-methyl-[4,5′]bithiazolyl-2-ylamino)-4-ethoxy-benzoic acid.HBr]
- Kd [1]: 23000 nM
- Kd [2]: 63000 nM
- Kd [3]: 3700 nM
- IC50 [4]: 1400 nM

Structure (SMILES): Cc1nc(C)c(-c2csc(Nc3cc(C(N)=O)ccc3OCC(C)C)n2)s1 [Example 28, 3-(2′,4′-Dimethyl-[4,5′]bithiazolyl-2-ylamino)-4-isobutoxy-benzamide]
- Kd [1]: 11000 nM
- Kd [2]: 56000 nM
- Kd [3]: > 95000 nM
- IC50 [4]: > 20000 nM

Structure (SMILES): Cc1nc(C(=O)N(C)CCN(C)C)sc1-c1csc(Nc2cc(C(N)=O)ccc2OC(C)C)n1 [Example 107, 2-(5-Carbamoyl-2-isopropoxy-phenylamino)-4′-methyl-[4,5′]bithiazolyl-2′-carboxylic acid (2-dimethylamino-ethyl)-methyl-amide.TFA]
- Kd [1]: 200 nM
- Kd [2]: 540 nM
- Kd [3]: 520 nM
- IC50 [4]: 150 nM

Structure (SMILES): COc1ccc(C(=O)NCc2ccccc2)cc1Nc1nc(-c2sc(NC(C)=O)nc2C)cs1 [Example 59, 3-(2′-Acetylamino-4′-methyl-[4,5′]bithiazolyl-2-ylamino)-N-benzyl-4-methoxy-benzamide.TFA]
- Kd [1]: 2000 nM
- Kd [2]: 20000 nM
- Kd [3]: 2700 nM
- IC50 [4]: 7500 nM

Structure (SMILES): CCOc1ccc(C(N)=O)cc1Nc1nc(-c2sc(C(=O)N3CCN(C)CC3)nc2C)cs1 [Example 115, 4-Ethoxy-3-[4′-methyl-2′-(4-methyl-piperazine-1-carbonyl)-[4,5′]bithiazolyl-2-ylamino]-benzamide.TFA]
- Kd [1]: 2800 nM
- Kd [2]: 6400 nM
- Kd [3]: 3800 nM
- IC50 [4]: 880 nM

Structure (SMILES): COc1c(F)cc(C(N)=O)cc1Nc1nc(-c2sc(C)nc2C)cs1 [Example 34, 3-(2′,4′-Dimethyl-[4,5′]bithiazolyl-2-ylamino)-5-fluoro-4-methoxy-benzamide]
- Kd [1]: 7800 nM
- Kd [2]: 28000 nM
- Kd [3]: 12000 nM
- IC50 [4]: 9000 nM

Structure (SMILES): COc1ccc(-c2cn[nH]c2)cc1Nc1nc(-c2sc(C)nc2C)cs1 [Example 138, (2′,4′-Dimethyl-[4,5′]bithiazolyl-2-yl)-[2-methoxy-5-(1H-pyrazol-4-yl)-phenyl]-amine]
- Kd [1]: 1700 nM
- Kd [2]: 830 nM
- Kd [3]: 480 nM
- IC50 [4]: 730 nM

Structure (SMILES): Cc1nc(NC(=O)C2CCN(C)CC2)sc1-c1csc(Nc2cc(C(N)=O)ccc2OC(C)C)n1 [Example 32, 1-Methyl-piperidine-4-carboxylic acid [2-(5-carbamoyl-2-isopropoxy-phenylamino)-4′-methyl-[4,5′]bithiazolyl-2′-yl]-amide]
- Kd [1]: 720 nM
- Kd [2]: 1900 nM
- Kd [3]: 250 nM
- IC50 [4]: 150 nM

Structure (SMILES): Cc1nc(C(=O)N2CCC(N(C)C)CC2)sc1-c1csc(Nc2cc(C(N)=O)ccc2OC(C)C)n1 [Example 110, 3-[2′-(4-Dimethylamino-piperidine-1-carbonyl)-4′-methyl-[4,5]bithiazolyl-2-ylamino]-4-isopropoxy-benzamide.TFA]
- Kd [1]: 130 nM
- Kd [2]: 690 nM
- Kd [3]: 480 nM
- IC50 [4]: 200 nM

Structure (SMILES): CCOc1ccc(-c2ncco2)cc1Nc1nc(-c2sc(C)nc2C)cs1 [Example 80, (2′,4′-Dimethyl-[4,5′]bithiazolyl-2-yl)-(2-ethoxy-5-oxazol-2-yl-phenyl)-amine.TFA]
- Kd [1]: 23000 nM
- Kd [2]: 3600 nM
- Kd [3]: 1800 nM
- IC50 [4]: 650 nM

Structure (SMILES): CCS(=O)(=O)c1ccc(OC)c(Nc2nc(-c3sc(C)nc3C)cs2)c1 [Example 50, (2′,4′-Dimethyl-[4,5′]bithiazolyl-2-yl)-(5-ethanesulfonyl-2-methoxy-phenyl)-amine.TFA]
- Kd [1]: 1300 nM
- Kd [2]: 2600 nM
- Kd [3]: 2600 nM
- IC50 [4]: 4100 nM

Structure (SMILES): CCOc1ccc(C(N)=O)cc1Nc1nc(-c2sc(C(=O)N3CCCN(C)CC3)nc2C)cs1 [Example 119, 4-Ethoxy-3-[4′-methyl-2′-(4-methyl-[1,4]diazepane-1-carbonyl)-[4,5′]bithiazolyl-2-ylamino]-benzamide.TFA]
- Kd [1]: 3300 nM
- Kd [2]: 6200 nM
- Kd [3]: 2200 nM
- IC50 [4]: 520 nM
